This passage reports keratinocyte migration and keratinocyte proliferation results from patent US20250057917A1, “COMPOSITION AND METHODS FOR TREATING RADIATION INDUCED INJURY” (Xequel Bio, Inc., priority 2023, published 2025).

Like-named read-outs stand apart in the source and are kept apart here. The star is where a group is joined. Biotin = O=C1N[C@H]2[C@H](CS[C@H]2CCCCC(=O)*)N1; Ahx = NCCCCCC(=O)O

Assay [1] concerns keratinocyte. Conditions: aCT1 treatment, Student's t-test p<0.0018, n=3, FIG. 9B.
Text: (§1) Student's t-test, *p<0.0001; n=8; mean±SEM. […] Student's t-test, *p<0.0018; n=3; mean±SEM.
Assay [2] has as its system keratinocyte. Conditions: aCT1 treatment, Student's t-test p<0.0001, n=8, FIG. 9A.
Text: as §1

On to “{Biotin-Ahx}-RQPKIWFPNRRKPWKKRPRPDDLEI-OH [aCT1]”, for which the keratinocyte migration entry was “an increase in keratinocyte migration” in the assay on keratinocyte [1]; “accelerated keratinocyte migration and proliferation” in the assay with keratinocyte [1] (listed as aCT1 peptide). Besides, the keratinocyte proliferation result in the assay on keratinocyte [2] is “an increase in keratinocyte proliferation”; in the assay on keratinocyte [2] (listed as aCT1 peptide) it was “accelerated keratinocyte migration and proliferation”.
